For six compounds, Activity results are on record in ChEMBL document CHEMBL2417417, “Chemical variation from the neoantimycin depsipeptide assembly line” (Bioorg Med Chem Lett, 2013).

Active and inactive are the calls of the source. The calls are words filed in the database; no cut-off is given here.

The test deals with HT-29. The test can be described thus: Antiproliferative activity against human HT-29 cells at 100 uM up to 15 hrs by non-radioactive cell proliferation assay. It counts as functional, cell-based.
`CC[C@H](C)[C@@H]1OC(=O)C(C)(C)[C@@H](O)[C@@H](Cc2ccccc2)OC(=O)[C@H](C)OC(=O)[C@@H](NC(=O)c2cccc(N)c2O)[C@H](C)OC1=O`: the outcome was inactive.
Turning to `CC[C@H](C)[C@@H]1OC(=O)C(C)(C)[C@@H](O)[C@@H](Cc2ccccc2)OC(=O)[C@H](C(C)C)OC(=O)[C@@H](NC(=O)c2cccc(N)c2O)[C@H](C)OC1=O`, the result was inactive.
Take `CC(C)[C@@H]1OC(=O)[C@@H](NC(=O)c2cccc(N)c2O)[C@H](C)OC(=O)[C@H](C(C)C)OC(=O)C(C)(C)[C@@H](O)[C@@H](Cc2ccccc2)OC1=O`: the result was inactive.
In the case of `CC[C@H](C)[C@@H]1OC(=O)C(C)(C)[C@@H](O)[C@@H](Cc2ccccc2)OC(=O)[C@H](C(C)C)OC(=O)[C@@H](NC(=O)c2cccc(NC=O)c2O)[C@H](C)OC1=O`, the result was inactive.
Turning to `CC[C@H](C)[C@@H]1OC(=O)C(C)(C)[C@@H](O)[C@@H](Cc2ccccc2)OC(=O)[C@H](C)OC(=O)[C@@H](NC(=O)c2cccc(NC=O)c2O)[C@H](C)OC1=O`, the result was inactive.
As for `CC(C)[C@@H]1OC(=O)[C@@H](NC(=O)c2cccc(NC=O)c2O)[C@H](C)OC(=O)[C@H](C(C)C)OC(=O)C(C)(C)[C@@H](O)[C@@H](Cc2ccccc2)OC1=O`, the result was inactive.
